Read-outs that look alike come from different tables or passages of the source. Where no end group is shown, it is not given here.
Columns and labels:
[1] = tested on: rat myocardial ischemia-reperfusion model; assay: rat myocardial ischemia-reperfusion model (30-min coronary occlusion, 4-hr reperfusion), infarct size; assay type: in vivo; details: for increase of infarct size (IS): pre-ischemic infusion (10-min), ICI-118551 100 μg/kg/min, CGRP8-37 3 ng/kg/min, n=8/group; for effect on infarct size (in words): infusion at late ischemia-early reperfusion
Source text: N=6 rats/group. […] Yellow zone within the red is the infarcted area. Red zone is the area-at-risk supplied by the occluded left anterior descending coronary artery. Blue zone is non-risk zone supplied by no-occluded right and circumflex coronary arteries. Infarct size is normalized as the ration of yellow-area/red-area. Acute infarction-reperfusion model consists of 30-minute occlusion of the left anterior descending coronary artery followed by four-hour reperfusion. Infarct-size was quantified at the end of four-hour reperfusion. N=6 rats/group. Inventors used rat MI model (30-min ischemia and 4 h reperfusion). […] The effect of combination therapy on myocyte protection was further assessed in a simulated ischemia-reperfusion model of isolated rat ventricular myocytes (2-hr ischemia and 1-hr reperfusion). […] The mechanisms underlying combination therapy were determined by assessing myocardial PKA and PKC activity in normal rats. […] Experimental Myocardial Ischemia-Reperfusion Model. The rat myocardial ischemia-reperfusion model will be used (Birnbaum et al., 2005; Huang et al., 2007a). This model consists of 30 min coronary artery occlusion followed by 4-hr reperfusion. […] To determine the effect of β1-adrenergic receptor antagonist and the synergistic action of both PKA activator and β1-adrenergic receptor antagonist, esmolol ([…]) will be intravenously infused to rats with or without milrinone. Arterial blood pressure and heart rate will be monitored continuously throughout the experiments. Method for in vivo myocardial infarct study: Following anesthesia and ventilation support, the chest is opened and the left coronary artery encircled with a suture and ligated for 30 min. The snare is then released and myocardium reperfused for 4 hr. The left coronary artery is then reoccluded and Evan's blue dye injected into the right ventricle. The LV is sliced into 6-7 sections. […] The areas of ischemia and necrosis in each slice are determined by planimetry, converted into percentages of the whole for each slice, and multiplied by the weight of the slice.

[2] = cited from earlier work
[3] = tested on: isolated rat ventricular myocytes; assay: simulated ischemia-reperfusion of isolated rat ventricular myocytes (2-hr hypoxia, 1-hr re-oxygenation), myocyte death; assay type: cell-based
Method: In vitro myocyte ischemia/reperfusion study consists of 2-hour hypoxia followed by 1-hour re-oxygenation. Hypoxia is created by layering mineral oil over the cells. Re-oxygenation is made by removal of the oil. Myocyte death is quantified at the end of 1-hour reperfusion.
(§1) Inventors used rat MI model (30-min ischemia and 4 h reperfusion). […] The effect of combination therapy on myocyte protection was further assessed in a simulated ischemia-reperfusion model of isolated rat ventricular myocytes (2-hr ischemia and 1-hr reperfusion). […] The mechanisms underlying combination therapy were determined by assessing myocardial PKA and PKC activity in normal rats.
To verify that infarct-size reducing or limiting effect is a direct product of PKA activation on myocyte survival but not a secondary effect due to salutatory coronary/systemic hemodynamic alternations, the inventors tested the effect of PKA activation by milrinone on isolated rat ventricular myocytes in primary culture. In vitro myocyte ischemia-reperfusion study consists of 2-hour hypoxia followed by 1-hour re-oxygenation. Hypoxia is created by layering mineral oil over the cells. Re-oxygenation is made by removal of the oil. Myocyte death is quantified at the end of 1-hour reperfusion.

[4] = tested on: acute myocardial infarction; details: rat model, administration before the onset of acute myocardial infarction; cited from earlier work
[5] = tested on: acute myocardial infarction; details: canine model, administration 30-min after the onset of acute myocardial infarction; cited from earlier work
[6] = tested on: PKA; assay: myocardial PKA activity after IV infusion in normal rats; assay type: in vivo, rat; details: 10-min tail vein infusion, peaked at 5-min post-infusion, ventricular tissue
Method: as §1

[7] = milrinone 5 μg/kg/min, esmolol 10 μg/kg/min

In the case of Cc1ccc(OCC(O)C(C)NC(C)C)c2c1CCC2 (centres unmarked) [ICI-118551], the “increase of infarct size (IS)” value [1] is reported as 44%.

In the case of COc1cccc2c1C(=O)c1c(O)c3c(c(O)c1C2=O)C[C@@](O)(C(=O)CO)C[C@@H]3O[C@H]1C[C@H](N)[C@H](O)[C@H](C)O1 [doxorubicin], the “incidence of doxorubicin-induced cardiomyopathy” value ([2]; dose of 501-550 mg/m^2 body surface area, patients) is listed as > 5% and the “incidence of doxorubicin-induced cardiomyopathy” value ([2]; dose over 550 mg/m^2, patients) is listed as 30%.

With COC(=O)CCc1ccc(OCC(O)CNC(C)C)cc1 (centres unmarked) [esmolol] the “effect on infarct size (in words)” value [1, 7] was “did not change infarct size”.

With Cc1[nH]c(=O)c(C#N)cc1-c1ccncc1 [milrinone] the “infarct-size reduction compared with saline control” value ([1]; 10-minute infusion from last 5 minutes of 30-minute ischemia to first 5 minutes of four-hour reperfusion, milrinone 5 μg/kg/min, esmolol 10 μg/kg/min, N=6 rats/group) was 53±5%, the “effect on infarct size (in words)” value [1, 7] was “robust infarct-size reduction” and the “milrinone-induced myocyte protection in presence of PKA inhibitor” value ([3]; cells pretreated with PKA inhibitor Rp-CAMP 100 μmol/L) was “abolished”. For the same molecule, the “reduction of myocyte death compared to saline control” value ([3]; milrinone 4.7 μmol/L, thirty minutes after the onset of ischemia) was 11%, the “effect on infarct size, given before onset of infarction (preconditioning)” value [4] was “infarct-size reduction” and the “effect on infarct size, given after onset of infarction” value [5] was “no infarct-size reduction”.

With CC(C)(C)NCC(O)c1cc(O)cc(O)c1 (centres unmarked) [terbutaline] the “effect on infarct size (IS) of single agent (in words)” value ([1]; CGRP or terbutaline alone, late ischemia-early reperfusion) was “did not reduce IS”, the “myocyte survival benefit of single agent (in words)” value ([3]; CGRP or terbutaline alone) was “no myocyte survival benefit” and the “increase of PKA activity” value [6] was 30%.

In the case of “CGRP8-37: CGRP-receptor blocker (VTHRLAGLLSRSGGVVKNNFVPTNVGSKAF; ends and bridges not checked; UniProt P06881 90-119, looked up, fragment)”, the “increase of infarct size (IS)” value [1] is reported as 36%.

— US8415384B2, “Reducing myocardial reperfusion injury by the combination therapy of protein kinase A activation and B1-adrenergic receptor blockade” (The Board of Regents of the University of Texas System, priority 2008, dated 2013)
